Assay results: patent US11602540B2, “Method for stimulating blood flow in a penile region of a patient” (BMR MEDICAL LLC, priority 2016, dated 2023)

Experiment: treatment of diffuse plaque by carbon dioxide injection into affected corpus tissues
Assay type: in vivo, patient
Conditions: injection directly into affected corpus tissues
Excerpt: In addition to the above treatment method embodiments, Applicants have discovered that injection(s) of carbon dioxide is/are also effective to treat a condition related to Peyronie's disease known as “diffuse plaque” comprising plaque that has not assimilated into any hardened singular construct within the penis, but remains in a “diffuse” state throughout. The preferred treatment method is injection(s) of carbon dioxide directly into the affected corpus tissues to treat the diffuse plaque. This form of carbon dioxide injection treatment may be continued until the diffuse plaque has been sufficiently mitigated or eliminated. Preferably, if more than one carbon dioxide injection is required, then the second injection location is optimally spaced away from the location of the first carbon dioxide injection. As above, the “dose” of each carbon dioxide injection(s) is considered to be “therapeutically effective” which is defined as described above in conjunction with “carboxy therapy”.
FIG. 10 illustrates one method 900 for treating diffuse plaque using the above-described method steps. Thus, the “diffuse plaque” condition is identified or diagnosed within at least one corpus cavernosa at 902. […] After the initial round of administration/injection(s) of carbon dioxide is complete, the results may be assessed to see if the plaque is mitigated at 908. […]

O=C=O [carbon dioxide]
effectiveness in treating diffuse plaque: effective
